Experimental data from ChEMBL document CHEMBL3045199, “Synthesis of some (E)-6-[2-(furan-2-yl)ethenyl]-1,2,4-triazin-5-ones and their biological evaluation as antitumor agents” (2013).

Key:
Type in all cases: functional
T47D = test: Cytotoxicity against Homo sapiens (human) T47D cells after 48 hr by SRB assay
HOP-92 = test: Cytotoxicity against Homo sapiens (human) HOP92 cells after 48 hr by SRB assay; conditions: HOP-92, 48 h
HCT-116 = test: Cytotoxicity against Homo sapiens (human) HCT116 cells after 48 hr by SRB assay; conditions: HCT-116, 48 h
NCI-H522 = test: Cytotoxicity against Homo sapiens (human) NCI-H522 cells after 48 hr by SRB assay; conditions: NCI-H522, 48 h
IGROV-1 = test: Cytotoxicity against Homo sapiens (human) IGROV1 cells after 48 hr by SRB assay; conditions: IGROV-1, 48 h
MDA-MB-231 = test: Cytotoxicity against Homo sapiens (human) MDA-MB-231 cells after 48 hr by SRB assay; conditions: MDA-MB-231, 48 h
OVCAR-8 = test: Cytotoxicity against Homo sapiens (human) OVCAR8 cells after 48 hr by SRB assay; conditions: OVCAR-8, 48 h
SN12C = test: Cytotoxicity against Homo sapiens (human) SN12C cells after 48 hr by SRB assay
MCF7 = test: Cytotoxicity against Homo sapiens (human) MCF7 cells after 48 hr by SRB assay; conditions: MCF7, 48 h
Malme-3M = test: Cytotoxicity against Homo sapiens (human) MALME-3M cells after 48 hr by SRB assay
UACC-62 = test: Cytotoxicity against Homo sapiens (human) UACC62 cells after 48 hr by SRB assay; conditions: UACC-62, 48 h
SF-268 = test: Cytotoxicity against Homo sapiens (human) SF268 cells after 48 hr by SRB assay; conditions: SF-268, 48 h
HOP-62 = test: Cytotoxicity against Homo sapiens (human) HOP62 cells after 48 hr by SRB assay; conditions: HOP-62, 48 h
MOLT-4 = test: Cytotoxicity against Homo sapiens (human) MOLT4 cells after 48 hr by SRB assay; conditions: MOLT-4, 48 h
OVCAR-5 = test: Cytotoxicity against Homo sapiens (human) OVCAR5 cells after 48 hr by SRB assay; conditions: OVCAR-5, 48 h
786-0 = test: Cytotoxicity against Homo sapiens (human) 786-0 cells after 48 hr by SRB assay; conditions: 786-0, 48 h
NCI-H460 = test: Cytotoxicity against Homo sapiens (human) NCI-H460 cells after 48 hr by SRB assay; conditions: NCI-H460, 48 h
[1] = read-out: LC50 (the source's name)

Nc1cc(-c2ccc(Cl)cc2)nn1-c1nc(=O)c(/C=C/c2ccco2)n[nH]1
LC50 (T47D): > 100 µM
TGI (T47D): 44.2 µM
GI50 (T47D; read-out: GI50): 4.37 µM
GI50 (T47D; read-out: pGI50 (converted)): 4.37 µM
LC50 (HOP-92): > 100 µM
TGI (HOP-92): 9.28 µM
GI50 (HOP-92; read-out: GI50): 1.61 µM
GI50 (HOP-92; read-out: pGI50 (converted)): 1.62 µM
TGI (HCT-116): 15.6 µM
GI50 (HCT-116; read-out: GI50): 2.92 µM
CC50 (HCT-116; [1]): > 100 µM
GI50 (HCT-116; read-out: pGI50 (converted)): 2.88 µM
TGI (NCI-H522): 36.8 µM
GI50 (NCI-H522; read-out: GI50): 5.12 µM
CC50 (NCI-H522; [1]): > 100 µM
GI50 (NCI-H522; read-out: pGI50 (converted)): 5.13 µM
LC50 (concentration killing 50% of cells) (IGROV-1): > 100 µM
TGI (IGROV-1): 37.8 µM
GI50 (IGROV-1; read-out: GI50): 4.89 µM
GI50 (IGROV-1; read-out: pGI50 (converted)): 4.9 µM
LC50 (lethal concentration, 50%) (MDA-MB-231): > 100 µM
TGI (MDA-MB-231): > 100 µM
GI50 (MDA-MB-231; read-out: GI50): 13.9 µM
GI50 (MDA-MB-231; read-out: pGI50 (converted)): 13.8 µM
TGI (OVCAR-8): 65.8 µM
GI50 (OVCAR-8; read-out: GI50): 4.47 µM
CC50 (OVCAR-8; [1]): > 100 µM
GI50 (OVCAR-8; read-out: pGI50 (converted)): 4.47 µM
TGI (SN12C): > 100 µM
GI50 (SN12C; read-out: GI50): 18.7 µM
CC50 (SN12C; [1]): > 100 µM
GI50 (SN12C; read-out: pGI50 (converted)): 18.6 µM
LC50 (concentration killing 50% of cells) (MCF7): > 100 µM
TGI (MCF7): 50.4 µM
GI50 (MCF7; read-out: GI50): 4.05 µM
GI50 (MCF7; read-out: pGI50 (converted)): 4.07 µM
LC50 (Malme-3M): > 100 µM
TGI (Malme-3M): 53.1 µM
GI50 (Malme-3M; read-out: GI50): 11 µM
GI50 (Malme-3M; read-out: pGI50 (converted)): 11 µM
LC50 (concentration killing 50% of cells) (UACC-62): > 100 µM
TGI (UACC-62): > 100 µM
GI50 (UACC-62; read-out: GI50): 5.07 µM
GI50 (UACC-62; read-out: pGI50 (converted)): 5.01 µM
TGI (SF-268): 25.1 µM
GI50 (SF-268; read-out: GI50): 1.99 µM
CC50 (SF-268; [1]): > 100 µM
GI50 (SF-268; read-out: pGI50 (converted)): 2 µM
LC50 (concentration killing 50% of cells) (HOP-62): > 100 µM
TGI (HOP-62): 76.8 µM
GI50 (HOP-62; read-out: GI50): 5.77 µM
GI50 (HOP-62; read-out: pGI50 (converted)): 5.75 µM
TGI (MOLT-4): 18.5 µM
GI50 (MOLT-4; read-out: GI50): 2.01 µM
CC50 (MOLT-4; [1]): > 100 µM
GI50 (MOLT-4; read-out: pGI50 (converted)): 2 µM
LC50 (50% lethal concentration) (OVCAR-5): > 100 µM
TGI (OVCAR-5): 82 µM
GI50 (OVCAR-5; read-out: GI50): 5.49 µM
GI50 (OVCAR-5; read-out: pGI50 (converted)): 5.5 µM
LC50 (786-0): > 100 µM
TGI (786-0): 21.2 µM
GI50 (786-0; read-out: GI50): 3.98 µM
GI50 (786-0; read-out: pGI50 (converted)): 3.98 µM
TGI (NCI-H460): 13.9 µM
GI50 (NCI-H460; read-out: GI50): 1.88 µM
CC50 (NCI-H460; [1]): > 100 µM
GI50 (NCI-H460; read-out: pGI50 (converted)): 1.86 µM
